Data taken from publication PMC6691788, “Design and synthesis of phthalazine-based compounds as potent anticancer agents with potential antiangiogenic activity via VEGFR-2 inhibition” (Journal of Enzyme Inhibition and Medicinal Chemistry, 2019).

Legend:
Test in all cases: NCI 60 cell panel SRB screen
[1] = system: MDA-MB 231/ATCC; type: cell-based; settings: Homo sapiens
[2] = system: HOP-62; type: cell-based; settings: Homo sapiens
[3] = system: SR; type: cell-based; settings: Homo sapiens
[4] = system: ACHN; type: cell-based; settings: Homo sapiens
[5] = system: CCRF-CEM; type: cell-based, human
[6] = system: IGROV1; type: cell-based; settings: Homo sapiens, IGROV-1
[7] = system: 786-0; type: cell-based; settings: Homo sapiens
[8] = system: PC-3; type: cell-based; settings: Homo sapiens
[9] = system: SN12C; type: cell-based; settings: Homo sapiens
[10] = system: KM12; type: cell-based; settings: Homo sapiens
[11] = system: U251; type: cell-based; settings: Homo sapiens, U-251
[12] = system: BT-549; type: cell-based; settings: Homo sapiens
[13] = system: SK-MEL-5; type: cell-based; settings: Homo sapiens
[14] = system: NCI-H23; type: cell-based; settings: Homo sapiens
[15] = system: SK-MEL-28; type: cell-based; settings: Homo sapiens
[16] = system: RPMI-8226; type: cell-based; settings: Homo sapiens
[17] = system: HS 578T; type: cell-based; settings: Homo sapiens
[18] = system: HL-60(TB); type: cell-based; settings: Homo sapiens
[19] = system: SW-620; type: cell-based; settings: Homo sapiens
[20] = system: HCT-116; type: cell-based; settings: Homo sapiens
[21] = system: UACC-62; type: cell-based
[22] = system: MALME-3M; type: cell-based; settings: Homo sapiens
[23] = system: NCI-H460; type: cell-based; settings: Homo sapiens
[24] = system: UACC-257; type: cell-based; settings: Homo sapiens
[25] = system: SK-OV-3; type: cell-based; settings: Homo sapiens
[26] = 5 log dose, 48 h, read-out: LC50 (the source's name)
[27] = single dose 10 μM, read-out: percent cell growth promotion

Question: Which results are given for `COc1cccc(NCc2nnc(Nc3ccc(Cl)cc3)c3ccccc23)c1` [Compound 16d, N-(4-Chlorophenyl)-4-((3-methoxyphenylamino)methyl)phthalazin-1-amine]?
Answer: GI50 ([1]; MDA-MB-231): 1.32 µM; IC (TGI) ([1]; MDA-MB-231, read-out: TGI): 6.32 µM; activity at 10 µM ([1]; MDA-MB-231, read-out: percent cell growth promotion): -27.1%; CC50 ([1]; MDA-MB-231, MDA-MDA 231/ATCC, 5 log dose, 48 h, read-out: LC50 (the source's name)): 19.7 µM; GI50 ([2]; HOP-62, 5 log dose): 2.06 µM; IC (TGI) ([2]; HOP-62, 5 log dose): 8.48 µM; CC50 ([2]; HOP-62, 5 log dose, 48 h, read-out: LC50 (the source's name)): > 25 µM; activity at 10 µM ([2]; HOP-62, single dose 10 μM, read-out: percent cell growth promotion): -17.1%; GI50 ([3]; 5 log dose): 0.97 µM; IC (TGI) ([3]; 5 log dose): 8.85 µM; CC50 [3, 26]: > 25 µM; activity at 10 µM [3, 27]: -24.5%; GI50 ([4]; 5 log dose): 1.56 µM; IC (TGI) ([4]; 5 log dose): 24.4 µM; CC50 [4, 26]: > 25 µM; activity at 10 µM [4, 27]: -5.35%; TGI ([5]; 5 log dose): 13.4 µM; GI50 ([5]; Homo sapiens, 5 log dose): 2.73 µM; CC50 ([5]; Homo sapiens, 5 log dose, 48 h, read-out: LC50 (the source's name)): > 25 µM; activity at 10 µM ([5]; Homo sapiens, single dose 10 μM, read-out: percent cell growth promotion): -4.42%; GI50 ([6]; IGROV1, 5 log dose): 0.9 µM; IC (TGI) ([6]; IGROV1, 5 log dose): 6.3 µM; CC50 ([6]; IGROV1, 5 log dose, 48 h, read-out: LC50 (the source's name)): > 25 µM; activity at 10 µM ([6]; IGROV1, single dose 10 μM, read-out: percent cell growth promotion): 1.51%; GI50 ([7]; 786-0, 5 log dose): 2.22 µM; IC (TGI) ([7]; 786-0, 5 log dose): 7.63 µM; CC50 ([7]; 786-0, 5 log dose, 48 h, read-out: LC50 (the source's name)): 24.4 µM; activity at 10 µM ([7]; 786-0, single dose 10 μM, read-out: percent cell growth promotion): -5.76%; GI50 ([8]; PC-3, 5 log dose): 1.19 µM; IC (TGI) ([8]; PC-3, 5 log dose): 9.33 µM; CC50 ([8]; PC-3, 5 log dose, 48 h, read-out: LC50 (the source's name)): > 25 µM; activity at 10 µM ([8]; PC-3, single dose 10 μM, read-out: percent cell growth promotion): -13.6%; GI50 ([9]; 5 log dose): 2.52 µM; IC (TGI) ([9]; 5 log dose): 11 µM; CC50 [9, 26]: > 25 µM; activity at 10 µM [9, 27]: 14.5%; GI50 ([10]; KM12, 5 log dose): 0.13 µM; IC (TGI) ([10]; KM12, 5 log dose): 6.52 µM; CC50 ([10]; KM12, 5 log dose, 48 h, read-out: LC50 (the source's name)): 18.6 µM; activity at 10 µM ([10]; KM12, single dose 10 μM, read-out: percent cell growth promotion): -24.9%; GI50 ([11]; U251, 5 log dose): 2.78 µM; IC (TGI) ([11]; U251, 5 log dose): 6.54 µM; CC50 ([11]; U251, 5 log dose, 48 h, read-out: LC50 (the source's name)): > 25 µM; activity at 10 µM ([11]; U251, single dose 10 μM, read-out: percent cell growth promotion): -56.2%; GI50 ([12]; BT-549): 1.9 µM; IC (TGI) ([12]; BT-549, read-out: TGI): 7.42 µM; activity at 10 µM ([12]; BT-549, read-out: percent cell growth promotion): -12.2%; CC50 ([12]; BT-549, 5 log dose, 48 h, read-out: LC50 (the source's name)): 24.8 µM; GI50 ([13]; SK-MEL-5): 0.81 µM; IC (TGI) ([13]; SK-MEL-5, read-out: TGI): 4.18 µM; activity at 10 µM ([13]; SK-MEL-5, read-out: percent cell growth promotion): -98.5%; CC50 ([13]; SK-MEL-5, 5 log dose, 48 h, read-out: LC50 (the source's name)): 10.2 µM; GI50 ([14]; NCI-H23, 5 log dose): 1.22 µM; IC (TGI) ([14]; NCI-H23, 5 log dose): 6.74 µM; CC50 ([14]; NCI-H23, 5 log dose, 48 h, read-out: LC50 (the source's name)): 24.6 µM; activity at 10 µM ([14]; NCI-H23, single dose 10 μM, read-out: percent cell growth promotion): 2.05%; GI50 ([15]; SK-MEL-28): 2.62 µM; IC (TGI) ([15]; SK-MEL-28, read-out: TGI): 6.17 µM; activity at 10 µM ([15]; SK-MEL-28, read-out: percent cell growth promotion): -16.1%; CC50 ([15]; SK-MEL-28, 5 log dose, 48 h, read-out: LC50 (the source's name)): 14.5 µM; GI50 ([16]; RPMI-8226, 5 log dose): 1.48 µM; IC (TGI) ([16]; RPMI-8226, 5 log dose): 7.51 µM; CC50 ([16]; RPMI-8226, 5 log dose, 48 h, read-out: LC50 (the source's name)): > 25 µM; activity at 10 µM ([16]; RPMI-8226, single dose 10 μM, read-out: percent cell growth promotion): -28.1%; GI50 ([17]; Hs-578T): 2.9 µM; IC (TGI) ([17]; Hs-578T, read-out: TGI): 11.5 µM; activity at 10 µM ([17]; Hs-578T, read-out: percent cell growth promotion): 0.54%; CC50 ([17]; HS 578T, 5 log dose, 48 h, read-out: LC50 (the source's name)): > 25 µM; GI50 ([18]; 5 log dose): 3.78 µM; IC (TGI) ([18]; 5 log dose): 13.1 µM; CC50 [18, 26]: > 25 µM; activity at 10 µM [18, 27]: -27.1%; GI50 ([19]; SW-620, 5 log dose): 2.98 µM; IC (TGI) ([19]; SW-620, 5 log dose): 8.13 µM; CC50 ([19]; SW-620, 5 log dose, 48 h, read-out: LC50 (the source's name)): 22.2 µM; activity at 10 µM ([19]; SW-620, single dose 10 μM, read-out: percent cell growth promotion): 11.9%; GI50 ([20]; HCT-116, 5 log dose): 0.88 µM; IC (TGI) ([20]; HCT-116, 5 log dose): 4.2 µM; LC50 (lethal concentration 50%) ([20]; HCT-116, 5 log dose, 48 h): 11.2 µM; activity at 10 µM ([20]; HCT-116, single dose 10 μM, read-out: percent cell growth promotion): -44.2%; GI50 ([21]; Homo sapiens, UACC-62): 1 µM; activity at 10 µM ([21]; Homo sapiens, UACC-62, read-out: percent cell growth promotion): -29.2%; CC50 ([21]; Homo sapiens, UACC-62, 5 log dose, 48 h, read-out: LC50 (the source's name)): 20.1 µM; TGI ([21]; UACC-62, 5 log dose): 5.76 µM; GI50 ([22]; Malme-3M): 1.22 µM; IC (TGI) ([22]; Malme-3M, read-out: TGI): 6.23 µM; activity at 10 µM ([22]; Malme-3M, read-out: percent cell growth promotion): -22%; CC50 ([22]; MALME-3M, 5 log dose, 48 h, read-out: LC50 (the source's name)): 17.3 µM; GI50 ([23]; NCI-H460, 5 log dose): 2.69 µM; IC (TGI) ([23]; NCI-H460, 5 log dose): 7.15 µM; LC50 (concentration causing 50% cell kill) ([23]; NCI-H460, 5 log dose, 48 h): 19 µM; activity at 10 µM ([23]; NCI-H460, single dose 10 μM, read-out: percent cell growth promotion): 0.1%; GI50 ([24]; UACC-257): 2.04 µM; IC (TGI) ([24]; UACC-257, read-out: TGI): 5.28 µM; activity at 10 µM ([24]; UACC-257, read-out: percent cell growth promotion): -39.7%; CC50 ([24]; UACC-257, 5 log dose, 48 h, read-out: LC50 (the source's name)): 11.6 µM; GI50 ([25]; SK-OV-3, 5 log dose): 1.13 µM; IC (TGI) ([25]; SK-OV-3, 5 log dose): 8.19 µM; CC50 ([25]; SK-OV-3, 5 log dose, 48 h, read-out: LC50 (the source's name)): > 25 µM; activity at 10 µM ([25]; SK-OV-3, single dose 10 μM, read-out: percent cell growth promotion): -11.9%
